Data: patent US20240174624A1, “CHIRAL N-(1,3,4-OXADIAZOLE-2-YL)PHENYL CARBOXYLIC ACID AMIDES AND THEIR USE AS HERBICIDES” (Bayer Aktiengesellschaft, priority 2021, published 2024)

Experiments:
ZEAMX [1] = test: Pre-emergence damage to crop plants; type: in vivo, Zea mays; details: 320 g a.i./ha, comparative experiment
Description: (§1) Seeds of monocotyledonous and dicotyledonous weed plants and crop plants are laid out in sandy loam soil in wood-fibre pots and covered with soil. The compounds of the invention, formulated in the form of wettable powders (WP) or as emulsion concentrates (EC), are then applied to the surface of the covering soil in the form of an aqueous suspension or emulsion at a water application rate equivalent to 600 to 800 l/ha, with addition of 0.2% wetting agent. After the treatment, the pots are placed in a greenhouse and kept under good growth conditions for the trial plants. The damage to the test plants is scored visually after a test period of 3 weeks by comparison with untreated controls (herbicidal activity in percent (%): 100% activity=the plants have died, 0% activity=like control plants). […] The tables below illustrate, in an illustrative manner, the post-emergence herbicidal action of the compounds of the invention, the herbicidal activity being stated in percent. In the experiments that follow, the herbicidal action of the compounds of the invention and that of the corresponding known racemic compounds closest from WO2012126932 and WO2018202535 were compared under the above-specified conditions by the pre-emergence and post-emergence method. The example numbers given in the tables relate to the compounds disclosed in the respective documents.

ORYZA [2] = test: Pre-emergence damage to crop plants; type: in vivo, Oryza sativa; details: 80 g a.i./ha, comparative experiment
Description: as §1

TRZAS [3] = test: Pre-emergence damage to crop plants; type: in vivo, Triticum aestiva; details: 80 g a.i./ha, comparative experiment
Description: as §1

ORYZA [4] = test: Post-emergence damage to crop plants; type: in vivo, Oryza sativa; details: 80 g a.i./ha, comparative experiment
Procedure: (§2) Seeds of monocotyledonous and dicotyledonous weed and crop plants are laid out in sandy loam soil in wood-fibre pots, covered with soil and cultivated in a greenhouse under good growth conditions. 2 to 3 weeks after sowing, the test plants are treated at the one-leaf stage. The compounds of the invention, formulated in the form of wettable powders (WP) or as emulsion concentrates (EC), are then sprayed onto the green parts of the plants in the form of an aqueous suspension or emulsion at a water application rate equating to 600 to 800 l/ha, with addition of 0.2% wetting agent. After the test plants have been left to stand in the greenhouse under optimal growth conditions for about 3 weeks, the action of the preparations is assessed visually in comparison to untreated controls (herbicidal action in percent (%): 100% activity=the plants have died, 0% activity=like control plants). […] The tables below illustrate, in an illustrative manner, the post-emergence herbicidal action of the compounds of the invention, the herbicidal activity being stated in percent. In the experiments that follow, the herbicidal action of the compounds of the invention and that of the corresponding known racemic compounds closest from WO2012126932 and WO2018202535 were compared under the above-specified conditions by the pre-emergence and post-emergence method. The example numbers given in the tables relate to the compounds disclosed in the respective documents.

ZEAMX [5] = test: Post-emergence damage to crop plants; type: in vivo, Zea mays; details: comparative experiment
Procedure: as §2

TRZAS [6] = test: Post-emergence damage to crop plants; type: in vivo, Triticum aestiva; details: 80 g a.i./ha, comparative experiment
Procedure: as §2

ALOMY = test: Pre-emergence herbicidal action; type: in vivo, Alopecurus myosuroides; details: 20 g a.i./ha, comparative experiment
Description: as §1

AVEFA = test: Pre-emergence herbicidal action; type: in vivo, Avena fatua; details: 20 g a.i./ha, comparative experiment
Description: as §1

MATIN = test: Pre-emergence herbicidal action; type: in vivo, Matricaria inodora; details: 20 g a.i./ha, comparative experiment
Description: as §1

POLCO = test: Pre-emergence herbicidal action; type: in vivo, Polygonum convolvulus; details: 320 g a.i./ha, comparative experiment
Description: as §1

SETVI [7] = test: Pre-emergence herbicidal action; type: in vivo, Setaria viridis; details: 20 g a.i./ha, comparative experiment
Description: as §1

STEME [8] = test: Pre-emergence herbicidal action; type: in vivo, Stellaria media; details: comparative experiment
Description: as §1

VERPE [9] = test: Pre-emergence herbicidal action; type: in vivo, Veronica persica; details: comparative experiment
Description: as §1

CYPES [10] = test: Pre-emergence herbicidal action; type: in vivo, Cyperus esculentus; details: 20 g a.i./ha, comparative experiment
Description: as §1

SETVI [11] = test: Post-emergence herbicidal action; type: in vivo, Setaria viridis; details: 5 g a.i./ha, comparative experiment
Procedure: as §2

STEME [12] = test: Post-emergence herbicidal action; type: in vivo, Stellaria media; details: 5 g a.i./ha, comparative experiment
Procedure: as §2

VERPE [13] = test: Post-emergence herbicidal action; type: in vivo, Veronica persica; details: 5 g a.i./ha, comparative experiment
Procedure: as §2

CYPES [14] = test: Post-emergence herbicidal action; type: in vivo, Cyperus esculentus; details: 20 g a.i./ha, comparative experiment
Procedure: as §2, with “The example numbers given in the tables relate to the compounds disclosed in the respective documents.” left out

C[S+]([O-])c1c(C(F)(F)F)ccc(C(=O)Nc2nnco2)c1Cl (racemic) [1-360, from WO2012126932, 2-chloro-N-(1,3,4-oxadiazol-2-yl)-3-[(rac)-methylsulfinyl]-4-(trifluoromethyl)benzamide, reference compound]
Damage to ZEAMX (ZEAMX [1]): 20% | Damage to ORYZA (ORYZA [2]): 100% | Damage to TRZAS (TRZAS [3]): 80% | Damage to ORYZA (ORYZA [4]): 100% | Damage to ZEAMX (ZEAMX [5]; 80 g a.i./ha): 20% | Damage to TRZAS (TRZAS [6]): 100%

Cc1nnc(NC(=O)c2ccc(C(F)(F)F)c([S+](C)[O-])c2Cl)o1 (racemic) [2-360, from WO2012126932, 2-chloro-N-(5-methyl-1,3,4-oxadiazol-2-yl)-3-[(rac)-methylsulfinyl]-4-(trifluoromethyl)benzamide, reference compound]
Herbicidal action against ALOMY (ALOMY): 30% | Herbicidal action against AVEFA (AVEFA): 0% | Herbicidal action against MATIN (MATIN): 70% | Herbicidal action against POLCO (POLCO): 20% | Herbicidal action against SETVI (SETVI [7]): 50% | Herbicidal action against STEME (STEME [8]; 20 g a.i./ha): 0% | Herbicidal action against STEME (STEME [8]; 80 g a.i./ha): 70% | Herbicidal action against STEME (STEME [8]; 320 g a.i./ha): 70% | Herbicidal action against VERPE (VERPE [9]; 20 g a.i./ha): 0% | Herbicidal action against VERPE (VERPE [9]; 80 g a.i./ha): 10% | Herbicidal action against CYPES (CYPES [10]): 70% | Herbicidal action against ZEAMX (ZEAMX [1]): 60% | Herbicidal action against SETVI (SETVI [11]): 80% | Herbicidal action against STEME (STEME [12]): 0% | Herbicidal action against VERPE (VERPE [13]): 20% | Herbicidal action against CYPES (CYPES [14]): 50% | Damage to ZEAMX (ZEAMX [5]; 20 g a.i./ha): 20%
